Results on 71 compounds are retold here after PubChem BioAssay AID1996.

≈ marks a conversion by molar mass, not a printed value.

For this data set the following is noted: buffer; pH 7.4; 200.0 µM.
As to `Cc1ccc(NC(=O)C(c2ccccc2)c2ccccc2)c(O)c1`, the solubility (kinetic) is 2.1 µg/mL (≈ 6.62 µM).
With `CCC(OC(=O)c1nsc(Cl)c1Cl)C(=O)NC(C)(C)CC` (stereo unspecified), the solubility (kinetic) is > 53 µg/mL.
`CCc1ccccc1N1CC(C(=O)Nc2nccs2)CC1=O` (stereo unspecified) came in with a kinetic solubility of 45.2 µg/mL (≈ 143 µM).
Regarding `COc1cc(S(=O)(=O)NCCCn2ccnc2)ccc1Cl`, the kinetic solubility was > 49.5 µg/mL.
Consider `COC(=O)c1ccccc1NC(=O)NN1CCN(C)CC1`, for which the solubility (kinetic) was > 43.9 µg/mL.
The figure for `CCn1c(CNC(=O)c2ccccc2F)cc2cc(C)ccc21` is 0.8 µg/mL (≈ 2.58 µM); for `NC(Cc1ccc(OC(F)F)cc1)C(=O)O` (stereo unspecified) it is 32.7 µg/mL (≈ 141 µM); for `CC1CCC(NC(=O)C2CC(=O)N(c3ccc(Cl)cc3)C2)CC1` (stereo unspecified) it is 2.3 µg/mL (≈ 6.87 µM).
For `COCCNc1c2c(c(C#N)c3nc4ccccc4n13)CCCC2`, the solubility (kinetic) is 11.8 µg/mL (≈ 36.8 µM).
Regarding `O=C(CN1c2cccc3cccc(c23)S1(=O)=O)Nc1ccc(F)c(F)c1F`, the kinetic solubility worked out at 2.9 µg/mL (≈ 7.39 µM).
In the case of `CCOC(=O)c1c(C)[nH]c(C)c1S(=O)(=O)N1CCCCC1`, the solubility (kinetic) was > 47.2 µg/mL.
On to `CCOc1ccc(NC(=S)NC23CC4CC(CC(C4)C2)C3)cc1`, for which the solubility (kinetic) was < 0.4 µg/mL.
Compound `CC1(C)C(=O)Nc2ccccc2N1C(=O)c1ccc([N+](=O)[O-])cc1` gave a solubility (kinetic) of 2.3 µg/mL (≈ 7.07 µM).
The figure for `CC(C(=O)Nc1ccc(C(F)(F)F)cc1)N(C)CC(=O)N1CCN(Cc2ccccc2)CC1.O=C(O)C(=O)O` (stereo unspecified) is 52.1 µg/mL.
`O=C(O)c1nccnc1C(=O)Nc1ccc(Cl)cn1` showed a solubility (kinetic) of 41.5 µg/mL (≈ 149 µM).
The figure for `O=C(NC1CCCCCC1)C1CC(=O)N(c2ccc(Cl)cc2)C1` (stereo unspecified) is 6.3 µg/mL (≈ 18.8 µM); for `Cl.N=c1ccn(Cc2ccc(F)cc2)cc1` it is > 35.8 µg/mL; for `NC(=O)c1cccc(-c2cccc(OC(=O)NC3CCCCC3)c2)c1` it is < 0.4 µg/mL.
With `N#C/C(=C/c1ccc(O)c(O)c1)C(=O)NCc1ccc(Cl)cc1`, the kinetic solubility was determined as 44.9 µg/mL (≈ 137 µM).
Compound `CC(=O)NC(=S)Nc1ccc([N+](=O)[O-])cc1C` had a kinetic solubility of 3.5 µg/mL (≈ 13.8 µM).
Consider `O=C(NCc1ccc2c(c1)OCO2)Nc1cccc(Cl)c1`, for which the kinetic solubility is 1.3 µg/mL (≈ 4.27 µM).
Regarding `N#CC(CC(=O)c1ccc(F)cc1)c1ccc2c(c1)OCO2` (stereo unspecified), the solubility (kinetic) is 1.2 µg/mL (≈ 4.04 µM).
Next, `CC1(C)CC(=O)C=C(Nc2ccccc2N)C1`: > 34.5 µg/mL; `O=C(O)C1CCCCC1C(=O)NC1C2CC3CC(C2)CC1C3` (stereo unspecified): 42.4 µg/mL (≈ 139 µM); `CC(C)(C)C(=O)O/N=C1\CCS(=O)(=O)c2sccc21`: 36.5 µg/mL (≈ 121 µM).
Next, `CC(=O)c1cccc(NC(=O)c2ccc3c(c2)OCO3)c1`: 2.2 µg/mL (≈ 7.77 µM); `CCOC(=O)C1CCN(Cc2ccc3ccccc3c2)CC1`: 25.9 µg/mL (≈ 87.1 µM); `COc1ccc2c(c1)C(=O)N(CCc1ccc(S(=O)(=O)NC(=O)NC3CCCCC3)cc1)C(=O)C2(C)C`: 69.5 µg/mL (≈ 132 µM).
For the compound `COc1ccc(C(=O)Nc2ccc(NC(=O)C(C)C)nc2)cc1`, the kinetic solubility came out at 3.1 µg/mL (≈ 9.89 µM).
`CC(OC(=O)CN1C(=O)C2C3C=CC(C4CC34)C2C1=O)C(=O)c1ccccc1` (stereo unspecified): the solubility (kinetic) is > 56.9 µg/mL.
Consider `Nc1cccc(-c2nc3ccc(C(=O)c4ccccc4)cc3[nH]2)c1`, for which the solubility (kinetic) came to 20.3 µg/mL (≈ 64.8 µM).
As to `CC(C)c1nc2oc3c(=O)[nH]cnc3c2c2c1COC(C)(C)C2`, the solubility (kinetic) is > 47 µg/mL.
As to `CCN(Cc1ccccc1)C(=O)CN1C(=O)c2ccccc2C1=O`, the solubility (kinetic) was > 48.4 µg/mL.
In turn, `COc1ccc(-c2cc(=O)oc3c(C)c(OCC(=O)N(C)C)ccc23)cc1` came in with a kinetic solubility of 9.6 µg/mL (≈ 26.1 µM).
With `CC1(C)C2C(Cl)(Cl)C2(C)c2ccccc2N1C=O` (stereo unspecified), the kinetic solubility was determined as 38.3 µg/mL (≈ 135 µM).
As for `Cc1c(Cl)cccc1NC(=O)CNC(=O)C1CC(=O)N(C2CCCC2)C1` (stereo unspecified), the kinetic solubility was > 56.7 µg/mL.
The figure for `CCCCNC(=O)CSc1nc(O)cc(=O)n1C1CCCC1` is > 48.8 µg/mL; for `CSc1nc2sc3c(c2c(=S)[nH]1)CC(C)(C)OC3` it is 10.6 µg/mL (≈ 35.5 µM).
Turning to `O=S1(=O)CCC(NC(=S)Nc2ccc3ccccc3c2)C1` (stereo unspecified), the kinetic solubility came out at 15.3 µg/mL (≈ 47.7 µM).
Take `COc1ccccc1NS(=O)(=O)c1ccc(OC)c([N+](=O)[O-])c1`: the kinetic solubility was > 50.8 µg/mL.
With `CCOC(=O)c1cccc(C(=O)Nc2nc3ccc(OC)cc3s2)n1`, the kinetic solubility was < 0.3 µg/mL.
Compound `N/C(=N\OC(=O)Nc1ccccc1)c1ccno1` had a solubility (kinetic) of 24.2 µg/mL (≈ 98.3 µM).
On to `Cc1ccc(S(=O)(=O)N2CCOCC2)cc1NC(=O)CN1C(=O)NC2(CCCC2)C1=O`, for which the kinetic solubility is > 67.6 µg/mL.
The figure for `CC1CCCC(C)N1C(=O)COC(=O)c1cc(=O)[nH]c2ccccc12` (stereo unspecified) is > 51.4 µg/mL.
With `Cc1ccc(CN2CCCC(CO)(Cc3ccccc3C)C2)s1` (stereo unspecified), the solubility (kinetic) was 48.6 µg/mL (≈ 147 µM).
On to `C(=N\N1CCOCC1)/c1ccsc1.O=P(O)(O)O`, for which the kinetic solubility is > 44.1 µg/mL.
The compound `O=C(c1ccccc1F)n1c2c(c3ccccc31)CCCC2` gave a solubility (kinetic) of 0.8 µg/mL (≈ 2.73 µM).
Compound `COc1ccc(CCNC(=O)C2CC(=O)N(c3ccc(C)cc3)C2)cc1` (stereo unspecified) returned a solubility (kinetic) of 2.5 µg/mL (≈ 7.09 µM).
For the compound `CC(OC(=O)c1cccs1)C(=O)NC1CC1` (stereo unspecified), the kinetic solubility is > 35.9 µg/mL.
`Cc1c(C)c(C)c(S(=O)(=O)NCCc2ccncc2)c(C)c1C`: the kinetic solubility stood at 2 µg/mL (≈ 6.02 µM).
In the case of `O=C1CCN2C=Nc3cccc4ccc1c2c34`, the kinetic solubility came to 33.2 µg/mL (≈ 149 µM).
With `O=C(NC(=S)Nc1cccc2c(O)cccc12)c1ccco1`, the solubility (kinetic) came to 9.3 µg/mL (≈ 29.8 µM).
On to `COc1ccc(NC(=O)N2CCc3ccccc3C2)c(OC)c1`, for which the solubility (kinetic) stood at 42.3 µg/mL (≈ 135 µM).
Take `CCCCn1c(O)c(C(=O)/C=C/c2ccc3c(c2)OCO3)c(=O)[nH]c1=O`: the solubility (kinetic) is > 53.8 µg/mL.
`CCOc1ccc(C2=CSC3=NCCN23)cc1Cl`: the solubility (kinetic) was 25 µg/mL (≈ 89 µM).
On to `O=C(NC1CC2CCCC(C1)N2C(=O)Nc1ccccc1Cl)C1CC1` (stereo unspecified), for which the solubility (kinetic) was > 54.3 µg/mL.
Take `O=C(CCc1c[nH]c2ccccc12)NCCc1ccc2c(c1)OCCO2`: the kinetic solubility stood at 44.4 µg/mL (≈ 127 µM).
As for `Cc1ccc(C2C(N)C(=O)N2c2ccc(C)cc2)cc1` (stereo unspecified), the kinetic solubility was > 40 µg/mL.
The figure for `N#CC1=C(N)Oc2cc(N)ccc2C1c1cccc(Br)c1` (stereo unspecified) is 3.5 µg/mL (≈ 10.2 µM).
Next, `Cc1cccc2sc(N(CCN(C)C)C(=O)c3ccc4ccccc4c3)nc12.Cl`: 0.4 µg/mL.
`O=C(Nc1cccc(S(=O)(=O)NCc2ccco2)c1)c1cccc(Cl)c1` returned a solubility (kinetic) of 2.5 µg/mL (≈ 6.4 µM).
For `CC(=O)N1CCN(C(=O)c2cc3ccccc3o2)CC1`, the kinetic solubility was > 40.8 µg/mL.
Compound `CC1CN(C(=O)COC(=O)/C=C/c2cccc([N+](=O)[O-])c2)CC(C)O1` (stereo unspecified) registered a kinetic solubility of 34.2 µg/mL (≈ 98.2 µM).
Consider `CCOc1ccc(NC(=O)NC2CC(=O)N(c3ccc(OC)cc3)C2)cc1` (stereo unspecified), for which the kinetic solubility came out at 7.7 µg/mL (≈ 20.8 µM).
Consider `CCOC(=O)C1CN(S(=O)(=O)c2cc(OC)ccc2OC)C1`, for which the solubility (kinetic) came to 48.8 µg/mL (≈ 148 µM).
On to `N/C(=N\OC(=O)COc1ccc2ccccc2c1)c1ccncc1`, for which the solubility (kinetic) came to 6.2 µg/mL (≈ 19.3 µM).
The figure for `CC(=O)N(Cc1ccccn1)Cc1ccco1` is > 34.5 µg/mL; for `CCOc1ncccc1C(=O)Nc1ccc(S(=O)(=O)Nc2cc(C)nc(C)n2)cc1` it is > 64.1 µg/mL; for `Cc1cc(N2CCCC2)ccc1NC(=O)COc1ccc(Cl)cc1` it is 4.4 µg/mL (≈ 12.8 µM).
The figure for `CCNC(C(=O)c1c[nH]c2c(CC)cccc12)c1ccccc1` (stereo unspecified) is 43.2 µg/mL (≈ 141 µM); for `CC(=O)N1CCN(S(=O)(=O)c2ccc3c(c2)CCC(=O)N3)CC1` it is > 50.6 µg/mL.
